Data taken from US11696903B2, “Compounds and methods for scavenging dicarbonyl electrophiles” (VANDERBILT UNIVERSITY, priority 2019, dated 2023).

Experiments:
[1] = system: gastric uptake of 18F-NaF (tumor marker) and 18F-FDG (inflammation marker); assay: PET/CT imaging with 18F-FDG and 18F-NaF; assay type: in vivo; settings: Hp-infected mice, EtSA
Description: As discussed further in the Examples, the human gastric epithelial cell line AGS was infected with Hp PMSS1±10 mM EtSA. FVB/N insulin-gastrin (INS-GAS) mice and Mongolian gerbils were infected for 8 wk with Hp PMSS1 and 7.13, respectively; EtSA (0.75% in water) was given to animals beginning one wk post-infection. Lys-LG adducts, a marker of electrophile reactions, and EtSA were quantified by LC/EST/MS/MS. Histology was analyzed on H&E staining. DNA damage was evaluated by pH2AX staining. Hp colonization was quantified by culture. Mucosal immune responses were determined by RNA profiling and by Luminex assay. Mice were imaged using PET/CT with ^18F-FDG (inflammation marker) and ^18F—NaF (tumor marker).

[2] = system: C57BL/6 mice in the AOM-DSS model; assay: AOM-DSS model of colitis-associated carcinoma (tumors, dysplasia, body weight); assay type: in vivo
Description: FIGS. 5A, 5B, 5C, 5D, 5E, 5F, and 5G show mice (n=10-12/group)±AOM-DSS±1.5 mg/ml EtHOBA. (A) Body weight; ″P<0.05 compared to AOM-DSS-treated mice. (B) Tumor number. (C) Average tumor size per mouse. (D) Tumor burden. (E) Number of adenomas. (F) Frequency of diagnoses; ND, no dysplasia. (G) H&E staining; each arrow depicts a tumor. Scale bar, 50 μm.
Animals receive an i.p. injection of the carcinogen AOM (12.5 mg/kg) followed by 3 cycles of 4% DSS, each for 4 days, over a total of 56-77 days. To directly determine the role of electrophiles in colon carcinogenesis, the present inventors tested the effect of EtHOBA in C57BL/6 mice in the AOM-DSS model. Mice were given 1.5 mg/ml EtHOBA one day after AOM and continued throughout the experiments, except during the DSS cycles, to avoid mixing. The present inventors assessed electrophiles in colons of mice treated with AOM-DSS, by IHC for electrophile protein adducts. […] In total, without the scavenger treatment, 25% of mice had HGD and the remaining 75% had L GD; in contrast, in those receiving EtHOBA, 20% had no dysplasia, none had HGD, and 80% had only L GD, a significant overall difference in diagnoses (FIGS. 5F-G).

[3] = system: LG-histone adducts in A549 cells; assay: LG-lysyl adduct formation on histones in A549 cells (LC/ESI/MS/MS); assay type: cell-based, human; settings: stimulated A549, 30, 300 or 1000 μM EtSA, 20 μM AA 1 h
Description: FIGS. 11A, 11B, 11C, 11D, 11E, and 11F are a series of graphs showing that LG-lysine adducts of histones are found in cells and tissue, dependent on COX-2 activity. RAW264.7 mouse macrophage (A) and A549 human lung carcinoma (C) cells were stimulated to express COX-2, then given 20 μM arachidonic acid (AA) or vehicle. A subgroup of cells was preincubated 45 min with 50 μM indomethacin. As a measure of COX activity, PGE2 was determined by GC/MS from cell media prior to lysis (B and D). Nuclei were isolated, and histones were extracted and digested to individual amino acids prior to LC/EST/MS/MS analysis. *, p<0.05; ***, p<0.001 by ANOVA followed by Tukey's post-test (n≥5). (E). Histones were extracted from nuclei of rat liver, and analyzed as above for LG-lactam adduct. COX-2 protein was analyzed by Western blotting and plotted against lactam adduct levels. Each point corresponds to 1 liver, and shown is the line of regression (r^2=0.7237). Pearson r=0.8507; two-tailed p=0.0152. […]
(A). […] Histone proteins were analyzed by LC/ESI/MS/MS for LG-lysyl lactam adduct, n=2. (B) Stimulated A549 cells were pretreated with 30, 300, or 1000 μM EtSA prior to 1 h with 20 μM AA, and histones analyzed for LG-lysyl adduct. *, p<0.05 by one-way ANOVA followed by Dunnett's multiple comparisons post-test (n=3-5). […] Media was analyzed by GC/MS for PGE2 (n=3). […]

[4] = system: LG-histone adducts in RAW264.7 cells; assay: LG-lysyl adduct formation on histones in RAW264.7 cells (LC/ESI/MS/MS); assay type: cell-based, mouse
Description: FIGS. 11A, 11B, 11C, 11D, 11E, and 11F are a series of graphs showing that LG-lysine adducts of histones are found in cells and tissue, dependent on COX-2 activity. RAW264.7 mouse macrophage (A) and A549 human lung carcinoma (C) cells were stimulated to express COX-2, then given 20 μM arachidonic acid (AA) or vehicle. A subgroup of cells was preincubated 45 min with 50 μM indomethacin. As a measure of COX activity, PGE2 was determined by GC/MS from cell media prior to lysis (B and D). Nuclei were isolated, and histones were extracted and digested to individual amino acids prior to LC/EST/MS/MS analysis. *, p<0.05; ***, p<0.001 by ANOVA followed by Tukey's post-test (n≥5). (E). Histones were extracted from nuclei of rat liver, and analyzed as above for LG-lactam adduct. COX-2 protein was analyzed by Western blotting and plotted against lactam adduct levels. Each point corresponds to 1 liver, and shown is the line of regression (r^2=0.7237). Pearson r=0.8507; two-tailed p=0.0152. (F) LC-MS chromatograph of histones isolated from a rat liver with relatively high COX-2 expression (COX-2 band intensity of 117 arbitrary units).
(A). Scavengers were screened in RAW264.7 cells for the ability to decrease LG adduct formation on histones. Scavengers used were glucosamine (GA), 3-methoxysalicylamine (3-MoSA), pentylpyridoxamine (PPM), and 5-ethylsalicylamine (EtSA). Cells were stimulated to express COX-2, pretreated 45 min. with 500 μM scavenger or vehicle (H2O), and given 20 μM AA for 1 h before lysing and extracting histones. Histone proteins were analyzed by LC/ESI/MS/MS for LG-lysyl lactam adduct, n=2. (B) Stimulated A549 cells were pretreated with 30, 300, or 1000 μM EtSA prior to 1 h with 20 μM AA, and histones analyzed for LG-lysyl adduct. *, p<0.05 by one-way ANOVA followed by Dunnett's multiple comparisons post-test (n=3-5). (C). A549 cells were stimulated, pretreated 45 min. with 1000 μM EtSA or H2O vehicle, and given 20 μM AA for 1 h. Media was analyzed by GC/MS for PGE2 (n=3). There was no effect on PGE2 production at lower doses of EtSA (data not shown).
To stimulate COX-2 expression, A549 or RAW264.7 cells were treated overnight with 5 ng/mL IL-1B (A549) or 10 μg/mL LPS and 10 U/mL IFNγ (RAW264.7) in serum-free medium. When indicated, cells were pretreated with indomethacin, aldehyde scavengers (glucosamine, 3-MoSA, PPM or EtSA), or vehicle (ethanol for indomethacin, H2O for scavengers) for 45 min, and then given 20 μM arachidonic acid (AA) or DMSO vehicle for 1 h before lysing.
Cultured cells were lysed in hypotonic buffer (10 mM Tris/10 mM NaCl/3 mM MgCl2) containing 1 mM pyridoxamine and 100 μM indomethacin to prevent the artifactual formation of LGE2 during the lytic process. […] Protein concentration was determined using the method of Bradford. […]

[5] = AOM-DSS, 1.5 mg/ml EtHOBA vs AOM-DSS alone

SMILES: CCc1ccc(O)c(CN)c1 [EtHOBA, 5-ethyl-2-hydroxybenzylamine]
- gastric uptake of the tumor marker 18F-NaF [1]: decreased
- uptake of the inflammation marker 18F-FDG [1]: not modified
- mice with high grade dysplasia (HGD) ([2]; AOM-DSS + EtHOBA, without scavenger 25%): none
- mice with only low-grade dysplasia (LGD) ([2]; AOM-DSS + EtHOBA, without scavenger 75%): 80%
- mice with no dysplasia ([2]; AOM-DSS + EtHOBA, without scavenger all mice had dysplasia): 20%
- Tumor number [2, 5]: significantly less tumors
- body weight loss at each cycle of DSS [2, 5]: less weight loss
- number of histologic adenomas [2, 5]: reduced number
- total tumor burden [2, 5]: lower
- tumor size [2, 5]: lower tumor size
- body weight in control mice ([2]; control mice treated for 56 days, 1.5 mg/ml EtHOBA): no change in body weight
- LG-histone adduct formation [3]: inhibited
- potency in protecting histones from modification by levuglandins ([4]; in comparison with salicylamine, pyridoxamine and their other analogues): most potent
- LG adduct formation on histones ([4]; stimulated RAW264.7, 500 μM scavenger 45 min, 20 μM AA 1 h): most effectively blocked
